Measured values reported in patent publication US20240358862A1, “Synthesis Method and Application of a Near-infrared Probe GGa-ICG specific binding to PSCA” (Guangzhou Shiyun Biotechnology Co., Ltd, priority 2022, published 2024).

Legend:
[1] = Fluorescence stability detection; format: physicochemical; conditions: after excitation at 780 nm
Description: Stability testing was divided into two groups: 1) stability testing under excitation wavelength and 2) stability testing of GGa-ICG under visible light. Excitation wavelength of 780 nm (GGa-ICG, ssDNA-ICG, and ICG) and visible light were used to excite the fluorescence probe GGa-ICG. Fluorescence detection was performed, and the changes in fluorescence intensity were recorded using a fluorescence spectrophotometer.

[2] = tested on: prostate cancer lesions (PC-3 xenograft); assay: In vivo imaging in PC-3 mouse xenograft model; parameters: species or system BALB/c nude mice; conditions: intravenous injection, at 2, 4, and 8 hours
Description: Male BALB/c nude mice (BALB/c-nude) were purchased from Beijing SLAC Laboratory Animal Co., Ltd. Five-week-old nude mice were subcutaneously injected with 5×10^6 PC-3 cells on the back. The tumor was allowed to grow for 15 to 20 days until it reached a diameter of 0.5-1.5 cm. The BALB/c nude mice bearing tumors were anesthetized with sedatives and anesthetics. Once the mice were immobilized, a designated dose (0.1 mg, 0.5 mg, 1 mg, 2 mg per injection) of GGa-ICG or ssDNA-ICG was injected through the tail vein. At certain time points, fluorescent images of live mice were collected using the IVIS Lumina II in vivo imaging system. For ex vivo fluorescent experiments, tumor-bearing mice that were intravenously injected with GGa-ICG or ssDNA-ICG were euthanized by cervical dislocation 1 hour after injection under anesthesia. After dissection, organs including brain, liver, kidney, spleen, lung, heart, and tumor tissue were imaged using the IVIS Lumina II in vivo imaging system as described above.

## CC1(C)C(/C=C/C=C/C=C/C=C2\N(CCCCS(=O)(=O)O)c3ccc4ccccc4c3C2(C)C)=[N+](CCCCS(=O)(=O)[O-])c2ccc3ccccc3c21 [ICG, indocyanine green, reference compound]
[1]
  time after which fluorescence was extinguished: 1 h
[2]
  binding to prostate cancer lesions in vivo: specifically bound
